Measured values published in US20100298141A1, “SUBSTITUTED PYRIDINE N-OXIDE HERBICIDES” (E. I. DU PONT DE NEMOURS AND COMPANY, priority 2007, published 2010).

Columns and labels:
barnyardgrass [1] = test: Test A pre-/postemergence greenhouse test; assay type: in vivo, Echinochloa crus-galli; settings: for Barnyardgrass plant response rating: 0 to 100 scale; for Plant response rating, Barnyardgrass: 0 to 100 scale where 0 is no effect and 100 is complete control
Procedure, shortened: (§1)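 Test compounds in non-phytotoxic solvent with surfactant were applied as a preemergence soil spray to seeded loam/sand pots and, concurrently, postemergence to plants at 2–10 cm, one- to two-leaf stage. About ten days in greenhouse, then injury visually rated against untreated controls.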

crabgrass [2] = test: Test A pre-/postemergence greenhouse test; assay type: in vivo, Digitaria sanguinalis; settings: for Crabgrass, Large plant response rating: 0 to 100 scale; for Plant response rating, Crabgrass, Large: 0 to 100 scale where 0 is no effect and 100 is complete control
Procedure, shortened: as §1

giant foxtail = test: Test A pre-/postemergence greenhouse test; assay type: in vivo, Setaria faberi; settings: for Foxtail, Giant plant response rating: 0 to 100 scale; for Plant response rating, Foxtail, Giant: 0 to 100 scale where 0 is no effect and 100 is complete control
Procedure, shortened: as §1

morningglory = test: Test A pre-/postemergence greenhouse test; assay type: in vivo, Ipomoea spp.; settings: for Morningglory plant response rating: 0 to 100 scale; for Plant response rating, Morningglory: 0 to 100 scale where 0 is no effect and 100 is complete control
Procedure, shortened: as §1

Italian ryegrass = test: Test C pre-/postemergence test; assay type: in vivo, Lolium multiflorum; settings: for Plant response rating, Ryegrass, Italian: 31 g ai/ha, scale 0 to 100 (0 no effect, 100 complete control)
Procedure, shortened: (§2)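 Seeds were planted and treated preemergence with test chemical in a non-phytotoxic solvent mixture containing surfactant. Postemergence applications of the same formulation went onto plants 2 to 18 cm tall (1- to 4-leaf stage). A dash marks no test result.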

bermudagrass = test: Test C pre-/postemergence test; assay type: in vivo, Cynodon dactylon; settings: for Plant response rating, Bermudagrass: 31 g ai/ha
Procedure, shortened: as §2

Surinam grass = test: Test C pre-/postemergence test; assay type: in vivo, Brachiaria decumbens; settings: for Plant response rating, Surinam Grass: 31 g ai/ha, scale 0 to 100 (0 no effect, 100 complete control)
Procedure, shortened: as §2

cocklebur = test: Test C pre-/postemergence test; assay type: in vivo, Xanthium strumarium; settings: for Plant response rating, Cocklebur: 31 g ai/ha, scale 0 to 100 (0 no effect, 100 complete control)
Procedure, shortened: as §2

crabgrass [3] = test: Test C pre-/postemergence test; assay type: in vivo, Digitaria sanguinalis; settings: for Plant response rating, Crabgrass, Large: 31 g ai/ha, scale 0 to 100 (0 no effect, 100 complete control)
Procedure, shortened: as §2

Goosegrass = test: Test C pre-/postemergence test; assay type: in vivo, Eleusin indica; settings: for Plant response rating, Goosegrass: 31 g ai/ha, scale 0 to 100 (0 no effect, 100 complete control)
Procedure, shortened: as §2

kochia = test: Test C pre-/postemergence test; assay type: in vivo, Kochia scoparia; settings: for Plant response rating, Kochia: 31 g ai/ha, scale 0 to 100 (0 no effect, 100 complete control)
Procedure, shortened: as §2

lambsquarters = test: Test C pre-/postemergence test; assay type: in vivo, Chenopodium album; settings: for Plant response rating, Lambsquarters: 31 g ai/ha, scale 0 to 100 (0 no effect, 100 complete control)
Procedure, shortened: as §2

pigweed = test: Test C pre-/postemergence test; assay type: in vivo, Amaranthus retroflexus; settings: for Plant response rating, Pigweed: 31 g ai/ha, scale 0 to 100 (0 no effect, 100 complete control)
Procedure, shortened: as §2

soybean = test: Test C pre-/postemergence test; assay type: in vivo, Glycine max; settings: for Plant response rating, Soybean: 31 g ai/ha, scale 0 to 100 (0 no effect, 100 complete control)
Procedure, shortened: as §2

[4] = tested on: common (oilseed) sunflower; test: Test C pre-/postemergence test; assay type: in vivo, Helianthus annuus; settings: for Plant response rating, Sunflower: 31 g ai/ha, scale 0 to 100 (0 no effect, 100 complete control)
Procedure, shortened: as §2

umbrella sedge = test: Test C flooded paddy test; assay type: in vivo, Cyperus difformis; settings: Flood
Procedure, shortened: (§3)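 Visual injury ratings against untreated controls, taken 13 to 15 days after compound was added to paddy water standing 3 cm above the soil.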

barnyardgrass [5] = test: Test C flooded paddy test; assay type: in vivo, Echinochloa crus-galli; settings: Flood
Procedure, shortened: as §3

[6] = Postemergence, 125 g ai/ha, 0 is no effect, 100 is complete control
[7] = Postemergence, 500 g ai/ha, 0 is no effect, 100 is complete control
[8] = Preemergence, 125 g ai/ha, 0 no effect, 100 complete control
[9] = preemergence, 250 g ai/ha, scale 0 (no effect) to 100 (complete control)
[10] = 62 g ai/ha, Preemergence, scale 0 to 100 (0 no effect, 100 complete control)
[11] = 125 g ai/ha, preemergence, scale 0 (no effect) to 100 (complete control)
[12] = Preemergence, scale 0 to 100 (0 no effect, 100 complete control)
[13] = 62 g ai/ha, Preemergence, scale 0 to 100
[14] = 31 g ai/ha, scale 0 to 100 (0 no effect, 100 complete control)
[15] = 62 g ai/ha, scale 0 to 100, 0 no effect, 100 complete control, 13 to 15 days
[16] = 125 g ai/ha, scale 0 to 100, 0 no effect, 100 complete control, 13 to 15 days
[17] = 250 g ai/ha, scale 0 to 100, 0 no effect, 100 complete control, 13 to 15 days
[18] = 62 g ai/ha, scale 0 to 100 (0 no effect, 100 complete control)

## Cc1cc[n+]([O-])c(S(=O)(=O)C(Cl)c2c(C(F)(F)F)nn(C)c2OCC(F)(F)F)c1 (racemic) [Compound 37]
Barnyardgrass [1]; [6]
  Barnyardgrass plant response rating: 30
Barnyardgrass [1]; [7]
  Barnyardgrass plant response rating: 70
Barnyardgrass [1]; [8]
  Barnyardgrass plant response rating: 90
Barnyardgrass [1]; Preemergence, 500 g ai/ha
  Plant response rating, Barnyardgrass: 100
Crabgrass [2]; [6]
  Crabgrass, Large plant response rating: 30
Crabgrass [2]; [7]
  Crabgrass, Large plant response rating: 80
Crabgrass [2]; [8]
  Crabgrass, Large plant response rating: 60
Crabgrass [2]; Preemergence, 500 g ai/ha
  Plant response rating, Crabgrass, Large: 90
Giant foxtail; [6]
  Foxtail, Giant plant response rating: 30
Giant foxtail; [7]
  Foxtail, Giant plant response rating: 80
Giant foxtail; [8]
  Foxtail, Giant plant response rating: 90
Giant foxtail; Preemergence, 500 g ai/ha
  Plant response rating, Foxtail, Giant: 100
morningglory; [6]
  Morningglory plant response rating: 0
morningglory; [7]
  Morningglory plant response rating: 20
morningglory; [8]
  Morningglory plant response rating: 0
morningglory; Preemergence, 500 g ai/ha
  Plant response rating, Morningglory: 80
Italian ryegrass; Preemergence
  Plant response rating, Ryegrass, Italian: 0
Italian ryegrass; [9]
  Ryegrass, Italian plant response rating: 100
bermudagrass; [10]
  Bermudagrass plant response rating: 90
bermudagrass; [11]
  Bermudagrass plant response rating: 100
bermudagrass; [12]
  Plant response rating, Bermudagrass: 85
bermudagrass; [9]
  Bermudagrass plant response rating: 100
Surinam grass; [13]
  Surinam Grass plant response rating: 100
Surinam grass; [11]
  Surinam Grass plant response rating: 100
Surinam grass; Preemergence
  Plant response rating, Surinam Grass: 50
Surinam grass; [9]
  Surinam Grass plant response rating: 100
cocklebur; [13]
  Cocklebur plant response rating: 0
cocklebur; [11]
  Cocklebur plant response rating: 0
cocklebur; Preemergence
  Plant response rating, Cocklebur: 0
cocklebur; [9]
  Cocklebur plant response rating: 0
Crabgrass [3]; [13]
  Crabgrass, Large plant response rating: 80
Crabgrass [3]; [11]
  Crabgrass, Large plant response rating: 100
Crabgrass [3]; Preemergence
  Plant response rating, Crabgrass, Large: 55
Crabgrass [3]; [9]
  Crabgrass, Large plant response rating: 100
Goosegrass; [13]
  Goosegrass plant response rating: 100
Goosegrass; [11]
  Goosegrass plant response rating: 100
Goosegrass; Preemergence
  Plant response rating, Goosegrass: 85
Goosegrass; [9]
  Goosegrass plant response rating: 100
kochia; [13]
  Kochia plant response rating: 40
kochia; [11]
  Kochia plant response rating: 100
kochia; Preemergence
  Plant response rating, Kochia: 0
kochia; [9]
  Kochia plant response rating: 100
lambsquarters; [13]
  Lambsquarters plant response rating: 80
lambsquarters; [11]
  Lambsquarters plant response rating: 100
lambsquarters; Preemergence
  Plant response rating, Lambsquarters: 0
lambsquarters; [9]
  Lambsquarters plant response rating: 100
pigweed; [13]
  Pigweed plant response rating: 100
pigweed; [11]
  Pigweed plant response rating: 100
pigweed; Preemergence
  Plant response rating, Pigweed: 80
pigweed; [9]
  Pigweed plant response rating: 100
soybean; [11]
  Soybean plant response rating: 10
soybean; Preemergence
  Plant response rating, Soybean: 0
soybean; [9]
  Soybean plant response rating: 10
[4]; [13]
  Sunflower plant response rating: 0
[4]; [11]
  Sunflower plant response rating: 0
[4]; Preemergence
  Plant response rating, Sunflower: 0
[4]; [9]
  Sunflower plant response rating: 40
Umbrella sedge; [14]
  Plant response rating, Sedge, Umbrella: 60
Umbrella sedge; [15]
  Plant response rating, Sedge, Umbrella: 85
Umbrella sedge; [16]
  Plant response rating, Sedge, Umbrella: 95
Umbrella sedge; [17]
  Plant response rating, Sedge, Umbrella: 95
Barnyardgrass [5]; [14]
  Plant response rating, Barnyardgrass: 10
Barnyardgrass [5]; [15]
  Plant response rating, Barnyardgrass: 10
Barnyardgrass [5]; [16]
  Plant response rating, Barnyardgrass: 10
Barnyardgrass [5]; [17]
  Plant response rating, Barnyardgrass: 80

## Cn1nc(C(F)(F)F)c(CS(=O)(=O)c2cccc[n+]2[O-])c1OCC(F)F [Compound 81]
Barnyardgrass [1]; Postemergence, 125 g ai/ha
  Plant response rating, Barnyardgrass: 60
Barnyardgrass [1]; [7]
  Barnyardgrass plant response rating: 80
Barnyardgrass [1]; [8]
  Barnyardgrass plant response rating: 90
Barnyardgrass [1]; Preemergence, 500 g ai/ha
  Plant response rating, Barnyardgrass: 100
Crabgrass [2]; Postemergence, 125 g ai/ha
  Plant response rating, Crabgrass, Large: 50
Crabgrass [2]; [7]
  Crabgrass, Large plant response rating: 70
Crabgrass [2]; [8]
  Crabgrass, Large plant response rating: 80
Crabgrass [2]; Preemergence, 500 g ai/ha
  Plant response rating, Crabgrass, Large: 100
Giant foxtail; Postemergence, 125 g ai/ha
  Plant response rating, Foxtail, Giant: 80
Giant foxtail; [7]
  Foxtail, Giant plant response rating: 80
Giant foxtail; [8]
  Foxtail, Giant plant response rating: 90
Giant foxtail; Preemergence, 500 g ai/ha
  Plant response rating, Foxtail, Giant: 100
morningglory; Postemergence, 125 g ai/ha
  Plant response rating, Morningglory: 30
morningglory; [7]
  Morningglory plant response rating: 50
morningglory; [8]
  Morningglory plant response rating: 0
morningglory; Preemergence, 500 g ai/ha
  Plant response rating, Morningglory: 80
Italian ryegrass; [13]
  Ryegrass, Italian plant response rating: 0
Italian ryegrass; [11]
  Ryegrass, Italian plant response rating: 50
Italian ryegrass; Preemergence
  Plant response rating, Ryegrass, Italian: 0
Italian ryegrass; [9]
  Ryegrass, Italian plant response rating: 100
bermudagrass; [10]
  Bermudagrass plant response rating: 100
bermudagrass; [11]
  Bermudagrass plant response rating: 100
bermudagrass; [12]
  Plant response rating, Bermudagrass: 80
bermudagrass; [9]
  Bermudagrass plant response rating: 100
Surinam grass; [13]
  Surinam Grass plant response rating: 80
Surinam grass; [11]
  Surinam Grass plant response rating: 100
Surinam grass; Preemergence
  Plant response rating, Surinam Grass: 70
Surinam grass; [9]
  Surinam Grass plant response rating: 100
cocklebur; [13]
  Cocklebur plant response rating: 0
cocklebur; [11]
  Cocklebur plant response rating: 50
cocklebur; Preemergence
  Plant response rating, Cocklebur: 0
cocklebur; [9]
  Cocklebur plant response rating: 60
Crabgrass [3]; [13]
  Crabgrass, Large plant response rating: 80
Crabgrass [3]; [11]
  Crabgrass, Large plant response rating: 98
Crabgrass [3]; Preemergence
  Plant response rating, Crabgrass, Large: 60
Crabgrass [3]; [9]
  Crabgrass, Large plant response rating: 98
Goosegrass; [13]
  Goosegrass plant response rating: 98
Goosegrass; [11]
  Goosegrass plant response rating: 100
Goosegrass; Preemergence
  Plant response rating, Goosegrass: 55
Goosegrass; [9]
  Goosegrass plant response rating: 100
kochia; [13]
  Kochia plant response rating: 100
kochia; [11]
  Kochia plant response rating: 100
kochia; Preemergence
  Plant response rating, Kochia: 40
kochia; [9]
  Kochia plant response rating: 100
lambsquarters; [13]
  Lambsquarters plant response rating: 100
lambsquarters; [11]
  Lambsquarters plant response rating: 100
lambsquarters; Preemergence
  Plant response rating, Lambsquarters: 80
lambsquarters; [9]
  Lambsquarters plant response rating: 100
pigweed; [13]
  Pigweed plant response rating: 98
pigweed; [11]
  Pigweed plant response rating: 100
pigweed; Preemergence
  Plant response rating, Pigweed: 0
pigweed; [9]
  Pigweed plant response rating: 100
soybean; [13]
  Soybean plant response rating: 0
soybean; [11]
  Soybean plant response rating: 100
soybean; Preemergence
  Plant response rating, Soybean: 0
soybean; [9]
  Soybean plant response rating: 100
[4]; [13]
  Sunflower plant response rating: 0
[4]; [11]
  Sunflower plant response rating: 50
[4]; Preemergence
  Plant response rating, Sunflower: 0
[4]; [9]
  Sunflower plant response rating: 75
Umbrella sedge; [18]
  Plant response rating, Sedge, Umbrella: 75
Umbrella sedge; [17]
  Plant response rating, Sedge, Umbrella: 95
Barnyardgrass [5]; [18]
  Plant response rating, Barnyardgrass: 0
Barnyardgrass [5]; [17]
  Plant response rating, Barnyardgrass: 0
